Values quoted from earlier work as cited in patent US20040034083A1, “Combination therapy for the treatment of Parkinson's disease with cyclooxygenase-2 (COX2) inhibitor(s)” (priority 2002, published 2004).

Key:
[1] = levodopa/carbidopa therapy of PD

- fraction of levodopa that reaches the brain (levodopa alone administered orally): about 1%
- fraction of orally administered levodopa metabolized by decarboxylase (then unable to cross the BBB) (oral administration, without carbidopa): Up to 99%
SMILES: N[C@@H](Cc1ccc(O)c(O)c1)C(=O)O [levodopa]
- duration of effectiveness after initiation of therapy [1]: about 5 years
